Assay results: the supplement of paper PMC8671470

Assays:
Details in all cases: 72 h
HEL = test system: HEL
Outline: (§1)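 For the IC50, dose–response curves were fitted with a log-logistic model. The data came from fifteen myeloid leukaemia cell lines grown in RPMI 1640 at densities in the linear growth range and incubated in 384-well plates for 72 h at 37 °C under 5% CO2. Doses were five tenfold steps from 1 to 10,000 nM in duplicate, and luminescent ATP viability was normalised to vehicle and to a positive control at 10 µM before four-parameter fitting.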

THP-1 = test system: THP-1
Outline: as §1

Mono-Mac-6 = test system: Mono-Mac-6
Outline: as §1

KU-812 = test system: KU-812
Outline: as §1

KCL-22 = test system: KCL-22
Outline: as §1

ML-2 = test system: ML-2
Outline: as §1

BV-173 = test system: BV-173
Outline: as §1

MV4-11 = test system: MV4-11
Outline: as §1

HL-60 = test system: HL-60
Outline: as §1

MOLM-13 = test system: MOLM-13
Outline: as §1

K-562 = test system: K-562
Outline: as §1

SHI-1 = test system: SHI-1
Outline: as §1

KG-1 = test system: KG-1
Outline: as §1

LAMA-84 = test system: LAMA-84
Outline: as §1

[1] = test system: myeloid leukemia patient primary cells Pat.5; assay: area under dose-response curve (viability, 1 nM-10 uM) (fraction (0-1)); higher = more sensitive
Method: (§2)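 AUC (0–1, higher = more sensitive) of the 5-point dose–response (1 nM–10 µM, 72 h, CellTiter-Glo) in primary AML/CML patient mononuclear cells. 0.030103 is the floor for inactive compounds.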

[2] = test system: myeloid leukemia patient primary cells Pat.6; assay: as above
Method: as §2

[3] = test system: myeloid leukemia patient primary cells Pat.12; assay: as above
Method: as §2

[4] = test system: myeloid leukemia patient primary cells Pat.10; assay: as above
Method: as §2

[5] = test system: myeloid leukemia patient primary cells Pat.15; assay: as above
Method: as §2

[6] = test system: myeloid leukemia patient primary cells Pat.9; assay: as above
Method: as §2

[7] = test system: myeloid leukemia patient primary cells Pat.7; assay: as above
Method: as §2

[8] = test system: myeloid leukemia patient primary cells Pat.13; assay: as above
Method: as §2

[9] = test system: myeloid leukemia patient primary cells Pat.14; assay: as above
Method: as §2

[10] = test system: myeloid leukemia patient primary cells Pat.4; assay: as above
Method: as §2

[11] = test system: myeloid leukemia patient primary cells Pat.8; assay: as above
Method: as §2

[12] = test system: myeloid leukemia patient primary cells Pat.1; assay: as above
Method: as §2

[13] = test system: myeloid leukemia patient primary cells Pat.12; assay: cell viability (% survival relative to DMSO control); higher = less cytotoxic
Outline: (§3)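 Seventy compounds were pre-printed on 384-well plates at five tenfold concentrations between 1 and 10,000 nM, in duplicate. Thawed mononuclear cells purified by Ficoll from AML or CML patients were added at 10,000 cells/well in RPMI 1640 with 10% FBS for 72 h. Viability by CellTiter-Glo was normalised to DMSO and 10 μM proteasome-inhibitor wells. Where stated, area under the curve was taken from log-logistic fits made with the drc and PharmacoGx R packages, each fit having four parameters.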

[14] = test system: myeloid leukemia patient primary cells Pat.11; assay: as above
Outline: as §3

[15] = test system: myeloid leukemia patient primary cells Pat.10; assay: as above
Outline: as §3

[16] = test system: myeloid leukemia patient primary cells Pat.3; assay: as above
Outline: as §3

[17] = test system: myeloid leukemia patient primary cells Pat.9; assay: as above
Outline: as §3

[18] = test system: myeloid leukemia patient primary cells Pat.13; assay: as above
Outline: as §3

[19] = test system: myeloid leukemia patient primary cells Pat.1; assay: as above
Outline: as §3

Structure (SMILES): OCCN1C[C@H](O)[C@@H](O)[C@H](O)[C@H]1CO [Miglitol]
- IC50 (cell viability) (HEL): > 10 µM
- IC50 (cell viability) (THP-1): > 10 µM
- IC50 (cell viability) (Mono-Mac-6): > 10 µM
- IC50 (cell viability) (KU-812): > 10 µM
- IC50 (cell viability) (KCL-22): > 10 µM
- IC50 (cell viability) (ML-2): > 10 µM
- IC50 (cell viability) (BV-173): > 10 µM
- IC50 (cell viability) (MV4-11): > 10 µM
- IC50 (cell viability) (HL-60): > 10 µM
- IC50 (cell viability) (MOLM-13): > 10 µM
- IC50 (cell viability) (K-562): > 10 µM
- IC50 (cell viability) (SHI-1): > 10 µM
- IC50 (cell viability) (KG-1): > 10 µM
- IC50 (cell viability) (LAMA-84): > 10 µM

Structure (SMILES): Fc1ccc(CNc2ncnc3ccc(F)cc23)cc1 [Spautin 1]
- area under dose-response curve [1]: 0.326
- area under dose-response curve [2]: 0.0755
- area under dose-response curve [3]: < 0.0301
- area under dose-response curve [4]: 0.0351
- area under dose-response curve [5]: 0.12
- area under dose-response curve [6]: 0.762
- area under dose-response curve [7]: 0.154
- area under dose-response curve [8]: 0.111
- area under dose-response curve [9]: 0.141
- area under dose-response curve [10]: 0.0735
- area under dose-response curve [11]: 0.0661
- area under dose-response curve [12]: 0.0783
- IC50 (cell viability) (HEL): 9.11 µM
- IC50 (cell viability) (THP-1): > 10 µM
- IC50 (cell viability) (Mono-Mac-6): > 10 µM
- IC50 (cell viability) (KU-812): 1.39 µM
- IC50 (cell viability) (KCL-22): > 10 µM
- IC50 (cell viability) (ML-2): > 10 µM
- IC50 (cell viability) (BV-173): 2.75 µM
- IC50 (cell viability) (MV4-11): 1.52 µM
- IC50 (cell viability) (HL-60): 9.64 µM
- IC50 (cell viability) (MOLM-13): > 10 µM
- IC50 (cell viability) (K-562): 1.34 µM
- IC50 (cell viability) (SHI-1): > 10 µM
- IC50 (cell viability) (KG-1): 1.57 µM
- IC50 (cell viability) (LAMA-84): 1.49 µM
- cell viability ([13]; 1 nM): 97.3%
- cell viability ([13]; 10 nM): 87.3%
- cell viability ([13]; 100 nM): > 100%
- cell viability ([13]; 1000 nM): > 100%
- cell viability ([13]; 10000 nM): 72.6%
- cell viability ([14]; 1 nM): > 100%
- cell viability ([14]; 10 nM): 96.2%
- cell viability ([14]; 100 nM): 97.9%
- cell viability ([14]; 1000 nM): 92.2%
- cell viability ([14]; 10000 nM): 84.7%
- cell viability ([15]; 1 nM): 73%
- cell viability ([15]; 10 nM): 15.3%
- cell viability ([15]; 100 nM): 96.8%
- cell viability ([15]; 1000 nM): 78.5%
- cell viability ([15]; 10000 nM): 47.9%
- cell viability ([16]; 1 nM): 63.4%
- cell viability ([16]; 10 nM): 49.7%
- cell viability ([16]; 100 nM): > 100%
- cell viability ([16]; 1000 nM): 33.1%
- cell viability ([16]; 10000 nM): 69.9%
- cell viability ([17]; 1 nM): 67.2%
- cell viability ([17]; 10 nM): 7.92%
- cell viability ([17]; 100 nM): 65.9%
- cell viability ([17]; 1000 nM): 12.7%
- cell viability ([17]; 10000 nM): 5.45%
- cell viability ([18]; 1 nM): 97.7%
- cell viability ([18]; 10 nM): 78.3%
- cell viability ([18]; 100 nM): 89.4%
- cell viability ([18]; 1000 nM): 75.7%
- cell viability ([18]; 10000 nM): 34.9%
- cell viability ([19]; 1 nM): 97%
- cell viability ([19]; 10 nM): 84.4%
- cell viability ([19]; 100 nM): 88.1%
- cell viability ([19]; 1000 nM): 81.7%
- cell viability ([19]; 10000 nM): 46.4%
